Laboratory results as given in patent US20110218515A1, “Methods for Treating Acute Myocardial Infarctions and Associated Disorders” (The Regents of the University of California, priority 2009, published 2011).

Tests used:
[1] = test system: ischemia-reperfusion rat model; test: Optical mapping, programmed stimulation and VT inducibility of excised hearts 5 wks after MI; assay type: in vivo, Sprague-Dawley rats; conditions: for conduction heterogeneity vs control: all tested cycle lengths; for rise times of border zones vs control: significant at lowest PCL
Description: After baseline echocardiography, thirty male Sprague-Dawley rats, ages 6-10 weeks, underwent myocardial infarction using an ischemia-reperfusion model. Briefly, rats were anesthetized using inhaled isoflurane (5% induction, 2.5% maintenance, O2 output 1 L/min) and positioned supine on an electrically warmed animal surgery platform. Rats were intubated using a 16-gauge i.v. catheter and then ventilated using a Harvard rodent respirator. After a left thoracotomy and pericardiotomy were performed, a 7-0 Ticron suture was introduced into the myocardium, using the left atrial appendage and right outflow tract as landmarks. The depth of entry was 2 mm, which was slightly greater than the level of the left coronary artery. Both suture ends were then threaded through a PE-90 polyethylene tube 6 in. in length to form a “snare loop” around the artery, closed by pulling on the free ends of the suture. […] The suture was then tightened to occlude the artery for 20 minutes and then removed to allow for reperfusion. The chest was then closed with 5-0 prolene suture, and the animal was allowed to recover. After one week and repeat echocardiography, rats were randomized to placebo rodent feed (control group, n=15) or rodent feed mixed with 1.2% pirfenidone (PFD) (treatment group, n=15) for four weeks. All experiments and data analyses were performed with the operator blinded to treatment group. Optical mapping is a technique to perform high-resolution electrophysiologic evaluation of the cardiac tissue. To summarize the procedure, ten thousand simultaneous optical action potentials were recorded with a 100×100 CMOS camera within a 19 mm×19 mm mapping field on the epicardium of the LV anterior wall. Using a 1000-W tungsten-halogen light source, fluorescence was excited with an excitation filter of 530 nm and transmitted with an emission long-pass filter of >630 nm. Fluorescent optical maps were acquired at 2000 Hz during programmed electrical stimulation. Optical mapping was performed 5 wks after MI. Rats were injected with heparin (500 U ip) 15 min before excision of the heart, and were then anesthetized with pentobarbital sodium (50 mg/kg ip). After adequate anesthesia, the heart was rapidly excised and arrested by immersion in cold cardioplegia solution. The aorta was cannulated and retrogradely perfused, at a rate of 6 mL/min, with 37° C. modified Tyrode solution containing (in mmol/L): 130 NaCl, 20.0 NaHCO3, 1.2 MgCl2, 4.0 KCl, 5.6 glucose, and 1.8 CaCl2, gassed with 95% 02/5% C02. Extraneous tissue was carefully removed from the heart. The cannulated heart was then placed in 37° C. Tyrode solution in a specialized temperature-controlled optical recording chamber (maintained at 37° C.) while ECG, perfusion rate, and temperature were measured continuously for the duration of the experiment. Before optical recordings, Tyrode solution containing voltage-sensitive dye PGH I (10 μL of 5 mM stock solution) was perfused through the preparation over a 5-min period. Once a cannulated heart was perfused with PGH I, it was placed in the optical chamber with its LV anterior wall pressed against the imaging window. […] During optical recordings, contractility was blocked with 15 mM butadione monoxime (BDM). Ventricular epicardium bipolar pacing, at a stimulus amplitude of 2× threshold, was performed on normal tissue near the infarct zone. Mapping was recorded during pacing drives of 250 ms to 90 ms (decremented by 10 ms), as well as during S1-S2 pacing using a basic cycle length (BCL) of 200 ms and maximum S2 of 150 ms and decremented by 10 ms. Programmed stimulation, with up to three extrastimuli, and burst pacing (from 90 ms to 60 ms) were used to assess arrhythmia inducibility. Inducibility was defined as the ability to provoke sustained (>30 s) ventricular tachycardia (VT) or ventricular fibrillation. Maps were also captured during programmed stimulation and with all episodes of arrhythmia. […]

[2] = test system: ischemia-reperfusion rat model; test: Histological analysis of infarct size and fibrosis; assay type: in vivo, Sprague-Dawley rats
Description: After baseline echocardiography, thirty male Sprague-Dawley rats, ages 6-10 weeks, underwent myocardial infarction using an ischemia-reperfusion model. Briefly, rats were anesthetized using inhaled isoflurane (5% induction, 2.5% maintenance, O2 output 1 L/min) and positioned supine on an electrically warmed animal surgery platform. Rats were intubated using a 16-gauge i.v. catheter and then ventilated using a Harvard rodent respirator. After a left thoracotomy and pericardiotomy were performed, a 7-0 Ticron suture was introduced into the myocardium, using the left atrial appendage and right outflow tract as landmarks. The depth of entry was 2 mm, which was slightly greater than the level of the left coronary artery. Both suture ends were then threaded through a PE-90 polyethylene tube 6 in. in length to form a “snare loop” around the artery, closed by pulling on the free ends of the suture. […] The suture was then tightened to occlude the artery for 20 minutes and then removed to allow for reperfusion. The chest was then closed with 5-0 prolene suture, and the animal was allowed to recover. After one week and repeat echocardiography, rats were randomized to placebo rodent feed (control group, n=15) or rodent feed mixed with 1.2% pirfenidone (PFD) (treatment group, n=15) for four weeks. All experiments and data analyses were performed with the operator blinded to treatment group.
Ventricular tissue samples were fixed in 10% neutral buffered formalin. The samples were embedded in paraffin, sectioned (10-μm thick), and then stained with Masson's trichrome or Sirius red with fast green counterstain. Stained slides were examined under light microscopy, digitized using a high-resolution scanner, and analyzed using Photoshop CS software. Infarct areas on Masson's trichome corresponded tightly with areas of dense Sirius red staining with minimal to no fast green. Infarct scar area and total area of left ventricular myocardium, for all sections, were manually traced in the digital images and automatically calculated by the software. Infarct size, expressed as a percentage, was measured by dividing the sum of infarct areas from all sections by the sum of LV areas from all sections and multiplying by 100.
The total area of fibrosis was also assessed. After excluding the infarct area (defined as dense fibrosis), fibrosis in the border and non-infarct zones was quantified from digital photomicrographs of the Sirius red-stained sections. Areas containing blood vessels and perivascular interstitial cells were also excluded from fibrosis quantification. The red pixel content of digitized images relative to the total tissue area was counted by using the Adobe Photoshop CS software.

[3] = test system: ischemia-reperfusion rat model; conditions: in vivo
Description: After baseline echocardiography, thirty male Sprague-Dawley rats, ages 6-10 weeks, underwent myocardial infarction using an ischemia-reperfusion model. Briefly, rats were anesthetized using inhaled isoflurane (5% induction, 2.5% maintenance, O2 output 1 L/min) and positioned supine on an electrically warmed animal surgery platform. Rats were intubated using a 16-gauge i.v. catheter and then ventilated using a Harvard rodent respirator. After a left thoracotomy and pericardiotomy were performed, a 7-0 Ticron suture was introduced into the myocardium, using the left atrial appendage and right outflow tract as landmarks. The depth of entry was 2 mm, which was slightly greater than the level of the left coronary artery. Both suture ends were then threaded through a PE-90 polyethylene tube 6 in. in length to form a “snare loop” around the artery, closed by pulling on the free ends of the suture. […] The suture was then tightened to occlude the artery for 20 minutes and then removed to allow for reperfusion. The chest was then closed with 5-0 prolene suture, and the animal was allowed to recover. After one week and repeat echocardiography, rats were randomized to placebo rodent feed (control group, n=15) or rodent feed mixed with 1.2% pirfenidone (PFD) (treatment group, n=15) for four weeks. All experiments and data analyses were performed with the operator blinded to treatment group. […]

`Cc1ccc(=O)n(-c2ccccc2)c1` [pirfenidone] was tested, and the “fluorescence amplitude in the border zones vs control” value [1] was “trend toward higher amplitudes”, the “decrease in VT susceptibility vs control” value ([1]; 5 wks after MI) was “almost three-fold decrease” and the “rate of VT induction” value ([1]; 5 wks after MI, controls 73.3%, p=0.027) was 28.6%. For the same compound, the “conduction velocities in the border zones vs control” value ([1]; all pacing cycle lengths, p<0.05) was “significantly faster”, the “conduction heterogeneity vs control” value ([1]; p=0.146) was “trend toward lower conduction heterogeneity” and the “conduction heterogeneity vs control” value ([1]; p=0.146, listed as PFD) was “trend toward higher conduction heterogeneity indices in control animals”. For the same compound, the “maximal rate of AP rise (dF/dt) of border zones vs control” value ([1]; trend at all PCLs) was “faster than the rise of control border zones”, the “rise times of border zones vs control” value ([1]; trend at all PCLs) was “shorter” and the “rise times of border zones vs control” value ([1]; trend at all PCLs, listed as PFD) was “lower than those of control border zones”. For the same compound, the “amount of fibrosis (including border zones and non-MI areas and infarct scar)” value ([2]; controls 23±2%, p=0.01) was 13±3%, the “total amount of fibrosis and extra-infarct fibrosis” value ([2]; rat MI model) was “attenuated” and the “infarct size, percent of total myocardium” value ([2]; rat MI model, controls 18%±2.7%, p=0.022) was 10±1.9%. For the same compound, the “fibrosis within the infarct border zone” value ([2]; rat MI model, vs control infarcts) was “not only decreased but its distribution appeared less heterogeneous” and the “mortality, CHF, or arrhythmias in treated animals” value [3] was “No increased mortality, CHF, or arrhythmias”.
